EP2435433B1, “(DIHYDRO)IMIDAZOISO[5,1-A]QUINOLINES AS FSH RECEPTOR AGONISTS FOR THE TREATMENT OF FERTILITY DISORDERS” (Merck Sharp & Dohme B.V., priority 2009, dated 2010)

Target: T1, human FSH receptor (Homo sapiens, UniProt P23945)
T1 construct: expressed in transfected cells; host or cells: Chinese Hamster Ovary (CHO) cells, stably transfected, cotransfected with CRE/promotor-firefly luciferase reporter
T1 sequence (P23945 18-695): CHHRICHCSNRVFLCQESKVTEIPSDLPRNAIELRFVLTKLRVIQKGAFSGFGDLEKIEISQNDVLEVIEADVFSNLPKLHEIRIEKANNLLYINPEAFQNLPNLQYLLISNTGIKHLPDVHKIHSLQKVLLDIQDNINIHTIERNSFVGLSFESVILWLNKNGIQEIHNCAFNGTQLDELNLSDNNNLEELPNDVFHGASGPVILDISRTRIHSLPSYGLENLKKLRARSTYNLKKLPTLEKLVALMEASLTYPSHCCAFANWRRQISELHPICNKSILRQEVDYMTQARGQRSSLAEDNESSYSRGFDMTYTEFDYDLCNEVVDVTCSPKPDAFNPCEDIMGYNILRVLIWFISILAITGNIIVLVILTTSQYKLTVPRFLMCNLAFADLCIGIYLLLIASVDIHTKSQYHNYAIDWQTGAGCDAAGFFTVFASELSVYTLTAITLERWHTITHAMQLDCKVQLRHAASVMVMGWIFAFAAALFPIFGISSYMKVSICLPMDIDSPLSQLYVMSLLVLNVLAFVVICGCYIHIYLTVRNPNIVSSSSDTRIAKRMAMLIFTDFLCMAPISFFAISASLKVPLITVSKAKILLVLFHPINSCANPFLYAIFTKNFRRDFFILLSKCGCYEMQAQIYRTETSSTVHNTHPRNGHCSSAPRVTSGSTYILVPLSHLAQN
Assay: Agonistic activity of compounds at the human FSH receptor expressed in CHO cells, CRE/luciferase reporter (hFSHRago (CHO luc))
Assay type: cell-based
Conditions: not given
From the text: The term EC50 means the concentration of the test compound that elicits half-maximal (50 %) stimulation compared to the compound's maximally attainable effect. The values can be determined e.g. in a cell line transfected with a FSH receptor gene and cotransfected with a cAMP responsive element/promoter directing the expression of a reporter gene. Values can be determined using a software program such as MathIQ (version 2.0, ID Business Solutions Limited).
Agonistic activity of the compounds at the human FSH receptor was determined in Chinese Hamster Ovary (CHO) cells stably transfected with the human FSH receptor and cotransfected with a cAMP responsive element (CRE)/promotor directing the expression of a firefly luciferase reporter gene. Binding of the compounds to the Gs protein-coupled FSH receptor will result in an increase of cAMP, which in turn will induce an increased transactivation of the luciferase reporter. Cells (7,500 cells/well of a 384 well plate) were incubated in Dulbecco' minimal essential F12 modified medium (Invitrogen), supplemented with 1 µg/ml bovine insulin, 5 µg/ml human apo-transferrin, 80 U/ml penicillin G and 80 µg/ml streptomycin with the test compounds (concentration between 0.0316 nM and 10.0 µM) in duplicate in a humidified atmosphere (95%) at 5-7% CO2 and 37°C. The final concentration of DMSO was 1%. After 4 hours of incubation, plates were allowed to adjust to room temperature for 1 hour. Then, Luclite (PerkinElmer) solution was added to the wells and cells were allowed to lyse for at least 1 hour at room temperature. Subsequently, luciferase activity was measured in a luminescence counter. The signal is expressed as counts per second (cps). The EC50 (concentration of the test compound that elicits half-maximal (50 %) luciferase stimulation compared to the compound's maximally attainable effect) and efficacy values (maximal effect of the test compound as percentage of the maximal effect of recombinant human FSH) of the compounds were determined using the software program MathIQ (version 2.0, ID Business Solutions Limited). EC50 data are indicated at the synthesis examples.

SMILES | EC50
COc1cc2c(cc1-c1cccnc1)-c1c(-c3cccs3)nc(C(=O)N(C)C(C)(C)C)n1CC2 [Example 2a] | 1 nM

Same assay, conditions: CHO cells stably transfected with the human FSH receptor and CRE/firefly luciferase reporter; 4 hours of incubation; half-maximal stimulation relative to the compound's own maximal effect; read-out: hFSHRago (CHO luc) EC50

SMILES | EC50
COc1cc2c(cc1Br)-c1c(-c3cccs3)nc(C(=O)N(C)C(C)(C)C)n1CC2 [Example 1j, 9-Bromo-8-methoxy-1-thiophen-2-yl-5,6-dihydro-imidazo[5,1-a]isoquinoline-3-carboxylic acid tert-butyl-methyl-amide] | 36 nM
COc1cc2c(cc1-c1ccccn1)-c1c(-c3cccs3)nc(C(=O)N(C)C(C)(C)C)n1CC2 [Example 2b, 8-Methoxy-9-pyridin-2-yl-1-thiophen-2-yl-5,6-dihydro-imidazo[5,1-a]isoquinoline-3-carboxylic acid tert-butyl-methyl-amide] | 13 nM
COc1cc2c(cc1-c1cccc(F)n1)-c1c(-c3cccs3)nc(C(=O)N(C)C(C)(C)C)n1CC2 [Example 2c, 9-(6-Fluoro-pyrjdin-2-yl)-8-methoxy-1-thiophen-2-yl-5,6-dihydro-imidazo[5,1-a]iso-quinoline-3-carboxylic acid tert-butyl-methyl-amide] | 3 nM
COc1cc2c(cc1-c1cccc(N3CCOCC3)n1)-c1c(-c3cccs3)nc(C(=O)N(C)C(C)(C)C)n1CC2 [Example 2d, 8-Methoxy-9-(6-morpholin-4-yl-pyridin-2-yl)-1-thiophen-2-yl-5,6-dihydro-imidazo[5,1-a]isoquinoline-3-carboxylic acid tert-butyl-methyl-amide] | 100 nM
COc1cc2c(cc1-c1cccc(C(F)(F)F)c1)-c1c(-c3cccs3)nc(C(=O)N(C)C(C)(C)C)n1CC2 [Example 2e, 8-Methoxy-1-thiophen-2-yl-9-(3-trifluoromethyl-phenyl)-5,6-dihydro-imidazo[5,1-a]isoquinoline-3-carboxylic acid tert-butyl-methyl-amide] | 65 nM
COc1cc2c(cc1-c1cccc(NC(C)=O)c1)-c1c(-c3cccs3)nc(C(=O)N(C)C(C)(C)C)n1CC2 [Example 2f, 9-(3-Acetylamino-phenyl)-8-methoxy-1-thiophen-2-yl-5,6-dihydro-imidazo[5,1-a]iso-quinoline-3-carboxylic acid tert-butyl-methyl-amide] | 1 nM
COc1cc2c(cc1-c1cccc(-n3cccn3)c1)-c1c(-c3cccs3)nc(C(=O)N(C)C(C)(C)C)n1CC2 [Example 2g, 8-Methoxy-9-(3-pyrazol-1-yl-phenyl)-1-thiophen-2-yl-5,6-dihydro-imidazo[5,1-a]iso-quinoline-3-carboxylic acid tert-butyl-methyl-amide] | 2 nM
COc1cc2c(cc1-c1cccc(N3CCOCC3)c1)-c1c(-c3cccs3)nc(C(=O)N(C)C(C)(C)C)n1CC2 [Example 2h, 8-Methoxy-9-(3-morpholin-4-yl-phenyl)-1-thiophen-2-yl-5,6-dihydro-imidazo[5,1-a]iso-quinoline-3-carboxylic acid tert-butyl-methyl-amide] | 2 nM
COc1cc2c(cc1-c1cccc(F)c1)-c1c(-c3cccs3)nc(C(=O)N(C)C(C)(C)C)n1CC2 [Example 2i, 9-(3-Fluoro-phenyl)-8-methoxy-1-thiophen-2-yl-5,6-dihydro-imidazo[5,1-a]isoquinoline-3-carboxylic acid tert-butyl-methyl-amide] | 3 nM
COc1cc2c(cc1-c1ccccc1C#N)-c1c(-c3cccs3)nc(C(=O)N(C)C(C)(C)C)n1CC2 [Example 2j, 9-(2-Cyano-phenyl)-8-methoxy-1-thiophen-2-yl-5,6-dihydro-imidazo[5,1-a]isoquinoline-3-carboxylic acid tert-butyl-methyl-amide] | 5 nM
COc1cc2c(cc1-c1cccc(N)c1)-c1c(-c3cccs3)nc(C(=O)N(C)C(C)(C)C)n1CC2 [Example 2k, 9-(3-Amino-phenyl)-8-methoxy-1-thiophen-2-yl-5,6-dihydro-imidazo[5,1-a]isoquinoline-3-carboxylic acid tert-butyl-methyl-amide] | 8 nM
COc1cc2c(cc1-c1cccc(N(C)C)c1)-c1c(-c3cccs3)nc(C(=O)N(C)C(C)(C)C)n1CC2 [Example 2l, 9-(3-Dimethylamino-phenyl)-8-methoxy-1-thiophen-2-yl-5,6-dihydro-imidazo[5,1-a]iso-quinoline-3-carboxylic acid tert-butyl-methyl-amide] | 9 nM
COc1cc2c(cc1-c1c(C)noc1C)-c1c(-c3cccs3)nc(C(=O)N(C)C(C)(C)C)n1CC2 [Example 2m, 9-(3,5-Dimethyl-isoxazol-4-yl)-8-methoxy-1-thiophen-2-yl-5,6-dihydro-imidazo[5,1-a]iso-quinoline-3-carboxylic acid tert-butyl-methyl-amide] | 9 nM
COc1cc2c(cc1-c1cccc(C(=O)N(C)C)c1)-c1c(-c3cccs3)nc(C(=O)N(C)C(C)(C)C)n1CC2 [Example 2n, 9-(3-Dimethylcarbamoyl-phenyl)-8-methoxy-1-thiophen-2-yl-5,6-dihydro-imidazo[5,1-a]iso-quinoline-3-carboxylic acid tert-butyl-methyl-amide] | 11 nM
COc1cc2c(cc1-c1cccc(N3CCN(C(=O)OC(C)(C)C)CC3)c1)-c1c(-c3cccs3)nc(C(=O)N(C)C(C)(C)C)n1CC2 [Example 2o] | 14 nM
COc1cc2c(cc1-c1cccc(S(C)(=O)=O)c1)-c1c(-c3cccs3)nc(C(=O)N(C)C(C)(C)C)n1CC2 [Example 2p, 9-(3-Methanesulfonyl-phenyl)-8-methoxy-1-thiophen-2-yl-5,6-dihydro-imidazo[5,1-a]iso-quinoline-3-carboxylic acid tert-butyl-methyl-amide] | 15 nM
COc1ccccc1-c1cc2c(cc1OC)CCn1c(C(=O)N(C)C(C)(C)C)nc(-c3cccs3)c1-2 [Example 2q, 8-Methoxy-9-(2-methoxy-phenyl)-1-thiophen-2-yl-5,6-dihydro-imidazo [5,1-a]isoquinoline-3-carboxylic acid tert-butyl-methyl-amide] | 50 nM
COc1cc2c(cc1-c1ccc3c(c1)OCO3)-c1c(-c3cccs3)nc(C(=O)N(C)C(C)(C)C)n1CC2 [Example 2r, 9-Benzo[1,3]dioxol-5-yl-8-methoxy-1-thiophen-2-yl-5,6-dihydro-imidazo[5,1-a]iso-quinoline-3-carboxylic acid tert-butyl-methyl-amide] | 167 nM
C=Cc1cc2c(cc1OC)CCn1c(C(=O)N(C)C(C)(C)C)nc(-c3cccs3)c1-2 [Example 3b, 8-Methoxy-1-thiophen-2-yl-9-vinyl-5,6-dihydro-imidazo[5,1-a]isoquinoline-3-carboxylic acid tert-butyl-methyl-amide] | 28 nM
COc1cc2c(cc1C(=O)Nc1nncs1)-c1c(-c3cccs3)nc(C(=O)N(C)C(C)(C)C)n1CC2 [Example 3e, 8-Methoxy-1-thiophen-2-yl-5,6-dihydro-imidazo[5,1-a]isoquinoline-3,9-dicarboxylic acid 3-(tert-butyl-methyl-amide) 9-[1,3,4]thiadiazol-2-ylamide] | 3 nM
CCc1nnc(NC(=O)c2cc3c(cc2OC)CCn2c(C(=O)N(C)C(C)(C)C)nc(-c4cccs4)c2-3)s1 [Example 4, 8-Methoxy-1-thiophen-2-yl-5,6-dihydro-imidazo[5,1-a]isoquinoline-3,9-dicarboxylic acid 3-(tert-butyl-methyl-amide) 9-[(5-ethyl-[1,3,4]thiadiazol-2-yl)-amide]] | 58 nM
COc1cc2c(cc1C(=O)NC(C)C)-c1c(-c3cccs3)nc(C(=O)N(C)C(C)(C)C)n1CC2 [Example 5, 8-Methoxy-1-thiophen-2-yl-5,6-dihydro-imidazo[5,1-a]isoquinoline-3,9-dicarboxylic acid 3-(tert-butyl-methyl-amide) 9-isopropylamide] | 18 nM
